Assay results reported in publication PMC6887723, “Design and Synthesis of 4-(Heterocyclic Substituted Amino)-1H-Pyrazole-3-Carboxamide Derivatives and Their Potent Activity against Acute Myeloid Leukemia (AML)” (International Journal of Molecular Sciences, 2019).
Several values for one entry are separate records, joined by “and”; a condition that tells them apart may be missing. Identical values can stand only once.

Legend:
[1] = biological target: T1, CDK2 (Homo sapiens, UniProt P24941); test: CDK2 kinase activity assay (Hot-Spot); format: biochemical; conditions: 10 μM ATP; mean ± SD, three independent experiments
T1 construct: purchased Reaction Biology Corp
Experimental: (§1) Activities of kinases were determined using Hot-SpotSM kinase assay which was performed by Reaction Biology Corp. (Malvern PA, USA) as described previously.

[2] = biological target: T2, FLT3 (Homo sapiens, UniProt P36888); test: FLT3 kinase activity assay (Hot-Spot); format: biochemical; conditions: 10 μM ATP; mean ± SD, three independent experiments
T2 construct: purchased Reaction Biology Corp
T2 sequence (P36888 27-993): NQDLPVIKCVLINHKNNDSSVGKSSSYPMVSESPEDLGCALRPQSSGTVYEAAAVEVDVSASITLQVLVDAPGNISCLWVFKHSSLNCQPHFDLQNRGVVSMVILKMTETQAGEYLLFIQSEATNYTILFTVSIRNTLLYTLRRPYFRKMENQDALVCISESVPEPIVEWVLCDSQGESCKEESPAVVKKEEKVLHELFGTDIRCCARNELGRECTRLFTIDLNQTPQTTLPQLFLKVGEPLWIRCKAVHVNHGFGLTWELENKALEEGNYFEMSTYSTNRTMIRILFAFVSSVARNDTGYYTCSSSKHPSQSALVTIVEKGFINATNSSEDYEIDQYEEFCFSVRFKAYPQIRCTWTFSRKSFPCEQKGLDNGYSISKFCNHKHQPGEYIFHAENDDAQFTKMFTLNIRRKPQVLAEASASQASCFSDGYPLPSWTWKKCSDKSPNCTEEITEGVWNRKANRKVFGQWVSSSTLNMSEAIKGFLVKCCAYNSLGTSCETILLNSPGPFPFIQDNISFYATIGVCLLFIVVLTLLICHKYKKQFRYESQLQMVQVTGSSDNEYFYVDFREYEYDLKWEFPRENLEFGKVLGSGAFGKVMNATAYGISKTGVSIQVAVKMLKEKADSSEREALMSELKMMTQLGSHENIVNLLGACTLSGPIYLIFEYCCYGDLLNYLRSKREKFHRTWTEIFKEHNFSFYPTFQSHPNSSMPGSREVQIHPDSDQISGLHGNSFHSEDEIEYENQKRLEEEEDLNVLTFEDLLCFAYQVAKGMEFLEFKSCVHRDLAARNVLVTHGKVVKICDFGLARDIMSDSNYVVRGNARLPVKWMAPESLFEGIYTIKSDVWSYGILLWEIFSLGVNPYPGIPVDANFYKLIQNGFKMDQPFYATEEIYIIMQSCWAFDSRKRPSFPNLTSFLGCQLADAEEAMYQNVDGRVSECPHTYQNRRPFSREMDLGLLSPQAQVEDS
Experimental: as §1

[3] = biological target: T3, CDK4 (Homo sapiens, UniProt P11802); test: CDK4 kinase activity assay (Hot-Spot); format: biochemical; conditions: 10 μM ATP; mean ± SD, three independent experiments
T3 construct: purchased Reaction Biology Corp
T3 sequence (P11802 whole entry): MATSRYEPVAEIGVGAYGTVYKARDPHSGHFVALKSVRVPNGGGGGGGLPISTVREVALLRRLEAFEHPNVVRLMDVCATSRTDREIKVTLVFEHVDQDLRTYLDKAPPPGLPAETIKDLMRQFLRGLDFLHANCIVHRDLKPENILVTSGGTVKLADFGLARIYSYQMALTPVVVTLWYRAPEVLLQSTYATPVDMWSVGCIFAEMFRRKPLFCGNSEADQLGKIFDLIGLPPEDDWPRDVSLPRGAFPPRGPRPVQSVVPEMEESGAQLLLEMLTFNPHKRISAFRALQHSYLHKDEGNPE
T3 sequence (P24385 whole entry partner): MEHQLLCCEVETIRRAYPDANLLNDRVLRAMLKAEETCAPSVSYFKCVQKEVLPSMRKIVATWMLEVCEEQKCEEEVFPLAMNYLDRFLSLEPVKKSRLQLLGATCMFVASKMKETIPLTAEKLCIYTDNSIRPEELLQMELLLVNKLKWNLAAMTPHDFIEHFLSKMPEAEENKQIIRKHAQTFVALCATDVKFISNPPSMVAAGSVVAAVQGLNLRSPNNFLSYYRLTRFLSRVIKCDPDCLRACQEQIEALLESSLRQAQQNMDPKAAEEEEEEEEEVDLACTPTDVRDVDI
Experimental: as §1

[4] = test system: MV4-11; test: Cell growth inhibition assay (CellTiter-Glo); format: cell-based; conditions: Homo sapiens, 72 h, highest test concentration 1 μM, mean ± SD, three independent experiments
Experimental: The human AML cell line MV4-11 was purchased from the American Type Culture Collection (ATCC) (Manassas, VA, USA). MV4-11 was cultured in IMDM media (Corning, Crown Bioscience Inc., Taicang, China) with 10% FBS and supplemented with 2% L-glutamine and 1% pen/strep. The MV4-11 cell line was maintained in culture media at 37 °C with 5% CO2. The effects of target compounds on MV4-11 proliferation was performed by Crown Bioscience Inc. Cells were grown in 96-well culture plates (10,000/well). The compounds of various concentrations were added into the plates. Cell proliferation was determined after treatment with compounds for 72 h. Cell viability was measured using the CellTiter-Glo assay (Promega, Crown Bioscience Inc., Taicang, China) according to the manufacturer’s instructions, and luminescence was measured in a multilabel reader (Envision2014, PerkinElmer, Crown Bioscience Inc., Taicang, China). Data were normalized to the control group (DMSO) and represented by the mean of three independent measurements with standard error of <20%. IC50 values were calculated using Prism 5.0 (GraphPad Software, San Diego, CA, USA).

[5] = test system: BaF3 (FLT3 (ITD-F691L)); test: Antiproliferative activity in BaF3 cells transformed with FLT3-ITD-F691L; format: cell-based; conditions: Mus musculus, Table S2

IC50 [1]	IC50 [2] [nM]	IC50 [3]	melting point [°C]	IC50 [4] [nM]	IC50 [5] [nM]	Structure (SMILES)
0.2 ± 0.01 nM	5.1 ± 0.46	34.1 ± 0.94 nM				O=C(Nc1ccccc1)c1n[nH]cc1Nc1ncnc2[nH]ccc12 [Compound 3a]
4.31 ± 0.91 nM	5.83 ± 0.74	54.2 ± 1.26 nM				O=C(Nc1ccncc1)c1n[nH]cc1Nc1ncnc2[nH]ccc12 [Compound 3b]
32.8 ± 1.34 nM	88.8 ± 1.06	87.1 ± 1.26 nM	268 to 269			CC(C)(C)OC(=O)N1CCC(NC(=O)c2n[nH]cc2Nc2ncnc3[nH]ccc23)CC1 [Compound 3c]
63.2 ± 0.91 nM	74.3 ± 1.21	77.4 ± 1.1 nM				O=C(NC1CCNCC1)c1n[nH]cc1Nc1ncnc2[nH]ccc12 [Compound 3d]
10.4 ± 0.41 nM	17.8 ± 0.89	33 ± 0.94 nM	243 to 244			O=C(Nc1ccc(C(=O)N2CCOCC2)cc1)c1n[nH]cc1Nc1ncnc2sccc12 [Compound 8a]
8.42 ± 0.52 nM	19.18 ± 0.18	30.1 ± 0.99 nM	280 to 281	35.2 ± 0.83		CN1CCN(C(=O)c2ccc(NC(=O)c3n[nH]cc3Nc3ncnc4sccc34)cc2)CC1 [Compound 8b]
3.51 ± 0.19 nM	0.176 ± 0.09	2.41 ± 0.21 nM	223 to 224	4.28 ± 0.35		CN1CCCN(c2ccc(NC(=O)c3n[nH]cc3Nc3ncnc4sccc34)cc2)CC1 [Compound 8c]
2.32 ± 0.014 nM	0.262 ± 0.01	5.32 ± 0.31 nM	263 to 264	9.5 ± 0.01		CN1CCCN(c2ccc(NC(=O)c3n[nH]cc3Nc3ncnc4[nH]ccc34)cc2)CC1 [Compound 8d]
5.49 ± 0.42 nM	2.71 ± 0.31	51 ± 0.88 nM	215 to 216	38.3 ± 1.21		CN1CCCN(c2cccc(NC(=O)c3n[nH]cc3Nc3ncnc4[nH]ccc34)c2)CC1 [Compound 8e]
31.7 ± 0.55 nM	8.07 ± 0.21	67.3 ± 1.09 nM	> 300	54.1 ± 1.73		CN1CCCN(c2cccc(NC(=O)c3n[nH]cc3Nc3ncnc4sccc34)c2)CC1 [Compound 8f]
3.74 ± 0.16 nM	1.945 ± 0.013	10.6 ± 0.24 nM	303 to 304	16 ± 0.43		O=C(Nc1ccc(N2CCOCC2)cc1)c1n[nH]cc1Nc1ncnc2[nH]ccc12 [Compound 8g]
0.282 ± 0.013 nM	0.038 ± 0.001	1.19 ± 0.09 nM	304 to 305	7.3 ± 0.33		O=C(Nc1ccc(N2CCNCC2)cc1)c1n[nH]cc1Nc1ncnc2[nH]ccc12 [Compound 8h]
24.5 ± 0.57 nM	3.24 ± 0.14	9.17 ± 0.33 nM		27.2 ± 0.43		O=C(Nc1ccc(N2CC3CC2CN3)cc1)c1n[nH]cc1Nc1ncnc2sccc12 (centres unmarked) [Compound 8i]
9.64 ± 0.46 nM	2.81 ± 0.11	17.8 ± 0.82 nM	248 to 249	21.4 ± 0.56		O=C(Nc1ccc(N2CC3CC2CN3)cc1)c1n[nH]cc1Nc1ncnc2[nH]ccc12 (centres unmarked) [Compound 8j, N-(4-(2,5-Diazabicyclo[2.2.1]heptan-2-yl)phenyl)-4-((7 H-pyrrolo[2,3-d]pyrimidin-4-yl)amino)-1H-pyrazole-3-carboxamide]
315.2 ± 2.3 nM	6.03 ± 0.16	22.3 ± 0.92 nM	> 300	51.1 ± 1.34		O=C(Nc1ccc(N2CCNCC2)cn1)c1n[nH]cc1Nc1ncnc2sccc12 [Compound 8k, N-(5-(Piperazin-1-yl)pyridin-2-yl)-4-(thieno[2,3-d]pyrimidin-4-ylamino)-1H-pyrazole-3-carboxamide]
157 ± 3.22 nM	13.8 ± 0.37	23.1 ± 0.55 nM	288 to 290	134 ± 1.64		O=C(Nc1ccc(N2CCNCC2)cn1)c1n[nH]cc1Nc1ncnc2[nH]ccc12 [Compound 8l, 4-((7H-Pyrrolo[2,3-d]pyrimidin-4-yl)amino)-N-(5-(piperazin-1-yl)pyridin-2-yl)-1H-pyrazole-3-carboxamide]
98.7 ± 1.33 nM	1.88 ± 0.09	4.85 ± 0.2 nM		19.9 ± 0.74		O=C(Nc1ccc(N2CCNCC2)cn1)c1n[nH]cc1Nc1ncnc2sc3c(c12)CCC3 [Compound 8n]
109.2 ± 1.01 nM	8.28 ± 0.12	1.81 ± 0.023 nM		45.4 ± 1.07		O=C(Nc1ccc(N2CCNCC2)cn1)c1n[nH]cc1Nc1ncnc2sc3c(c12)CCCCC3 [Compound 8o]
86.4 ± 1.36 nM	7.45 ± 0.19	3.81 ± 0.26 nM	266 to 267			O=C(Nc1ccc(N2CCNCC2)cn1)c1n[nH]cc1Nc1ncnc2sc3c(c12)CCCC3 [Compound 8p]
509 ± 10.3 nM	20.2 ± 0.35	123.4 ± 1.09 nM	> 290	458 ± 9.2		O=C(Nc1ccc(N2CCNCC2)cn1)c1n[nH]cc1Nc1ncnc2c1CCC2 [Compound 8q]
9.29 ± 0.64 nM	3.8 ± 0.1	24.9 ± 0.29 nM	267 to 268	3.28 ± 0.19		O=C(Nc1ccc(N2CCOCC2)cc1)c1n[nH]cc1Nc1ncnc2sc3c(c12)CCCC3 [Compound 8r]
5.43 ± 0.41 nM	0.82 ± 0.003	4.36 ± 0.19 nM		9.13 ± 0.11		O=C(Nc1ccc(N2CC3CC2CN3)cc1)c1n[nH]cc1Nc1ncnc2sc3c(c12)CCC3 (centres unmarked) [Compound 8s]
1.02 nM and 2.33 nM		0.39 nM and 1.02 nM		9 ± 0.27	55.9	CN1CCN(Cc2ccc(NC(=O)c3n[nH]cc3Nc3ncnc4[nH]ccc34)cc2)CC1 [FN-1501, 4-((7H-Pyrrolo[2,3-D]Pyrimidin-4-Yl)Amino)-N-(4-((4-Methylpiperazin-1-Yl)Methyl)Phenyl)-1H-Pyrazole-3-Carboxamide, reference compound]
